{"source": "patent US20160221932A1", "about": "“Methods and Uses of Melatonin Ligands” (priority 2013, published 2016)", "key": {"human MT2 receptor": {"target": "T1, human MT2 receptor (Homo sapiens, UniProt P49286)", "T1 construct": "expressed in transfected cells", "T1 sequence (P49286 1-362)": "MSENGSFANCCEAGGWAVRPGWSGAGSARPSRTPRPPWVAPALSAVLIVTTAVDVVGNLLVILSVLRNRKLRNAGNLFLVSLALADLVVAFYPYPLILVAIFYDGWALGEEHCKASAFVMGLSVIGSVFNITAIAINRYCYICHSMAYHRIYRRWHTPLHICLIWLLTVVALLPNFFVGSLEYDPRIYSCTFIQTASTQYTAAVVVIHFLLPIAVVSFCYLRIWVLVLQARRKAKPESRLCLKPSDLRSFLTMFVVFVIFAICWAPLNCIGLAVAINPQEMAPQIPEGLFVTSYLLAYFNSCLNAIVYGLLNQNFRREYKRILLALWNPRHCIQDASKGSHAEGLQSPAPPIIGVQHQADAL", "experiment": "2-[125I]iodomelatonin competition binding, human MT2 in CHO cells"}, "[1]": {"target": "T2, human-cloned MT2 receptors (Homo sapiens, UniProt P49286)", "T2 construct": "expressed in transfected cells", "T2 sequence (P49286 1-362)": "T1 sequence (P49286 1-362)", "experiment": "cAMP assay in CHO cells expressing human-cloned MT2 (functional activity)", "assay_type": "cell-based", "conditions": "CHO cells"}, "SNI rats": {"system": "SNI rats", "experiment": "spared nerve injury (SNI) model, dynamic plantar aesthesiometer", "assay_type": "in vivo, rat", "conditions": "for mechanical withdrawal threshold compared to untreated rats: summary statement, dose not stated", "method": "Spared nerve injury (SNI) of the sciatic nerve and measurement of allodynia with the dynamic plantar aesthesiometer. SNI was performed according to the method of Decosterd and Woolf (2000). Rats were anaesthetized with sodium pentobarbital (50 mg/kg i.p.). The sciatic nerve was exposed at mid-thigh level […] to the trifurcation and freed of connective tissue; the three peripheral branches (sural, common peroneal, and tibial nerves) of the sciatic nerve were exposed without stretching nerve structures. Both tibial and common peroneal nerves were ligated and transected together. The sham procedure consisted of the same surgery without ligation and transection of the nerves. Fourteen days after SNI, mechanical allodynia was measured using the dynamic plantar aesthesiometer (Ugo Basile, Varese, Italy). Each rat was placed and allowed to move freely in one of the two compartments of the enclosure positioned on a metal grid surface. A mechanical stimulus was delivered to the plantar surface of the rat's hind paw through the metal grid by a steel filament (Von Frey-type), connected to a movable touch-stimulator unit exerting an increasing force of 3 g per second. The force inducing paw withdrawal was recorded to the nearest 0.1 g. Nociceptive responses for mechanical sensitivity (mechanical withdrawal threshold) were measured in grams before and after vehicle or drug administration by an experimenter blind to the treatments. A single trial at each time point was performed on the ipsilateral hind paw to SNI surgery for each rat. Nociceptive responses for mechanical sensitivity were expressed as mean±SEM (g). Groups of 6-7 rats per treatment were used, with each animal being used for one treatment only.\n(§1) Statistical Analysis: Data analysis was done using SigmaPlot 12 (Systat Software, Inc.). Two-way ANOVA for repeated measures was used to analyze data from L5-L6 models using treatments (between) and testing time (within) as factors. One-way ANOVA was used to analyze AUC in the L5-L6 spinal nerves ligation model. One-way ANOVA was used for formalin and hot-plate tests. Post-hoc analyses were performed using Bonferroni t-test comparisons or Student-Newman-Keuls (SNK) test. All data are expressed as mean±Standard Error of the Mean (SEM). P<0.05 was considered significant."}, "Wistar rats": {"system": "Wistar rats", "experiment": "formalin test", "assay_type": "in vivo, rat", "conditions": "for licking time vs vehicle, first phase / licking time vs vehicle, total time / licking time vs vehicle, second phase: 30 min prior to test; for licking time compared to untreated rats: summary statement, dose not stated", "method": "Animals: Wistar rats (150-250 g, Charles-River Saint-Constant, Quebec, Canada) were used for the formalin test, hot plate test and L5-L6 spinal nerves ligature model. The animals were housed at constant room temperature and humidity under a 12 h light/dark cycle (lights on at 7 AM). Food and water were available ad libitum.\nFormalin Test: Antinociception was assessed using the formalin test (Dubuisson and Dennis, 1977). Rats were placed in open Plexiglas observation chambers for 60 min to allow them to acclimatize to their surroundings; then they were removed for formalin administration. Rats were gently restrained while the dorsal surface of the right hindpaw was injected with […] of 1% formalin (37% formaldehyde solution further diluted in saline solution) with a 30-gauge needle. The animals were returned to the chambers and nociceptive behavior was observed immediately after formalin injection. Mirrors were placed in each chamber to enable unhindered observation. Licking/biting behavior directed to the formalin injected paw was scored in 5 min intervals considering number and duration of the licking. Cumulative behavior for the total duration of the test as well as the first (0-10 min) and second phase (20-50 min) was then analyzed (Sufka et al., 1998).The initial acute phase (0-10 min) was followed by a relatively short quiescent period, which was then followed by a prolonged tonic response (15-60 min). The first phase is considered to be the result of direct stimulation of nociceptors, whereas inflammation process contributes to phase 2 activity (Hunskaar and Hole, 1987). At the end of the experiment the rats were sacrificed in a CO2 chamber.\nas §1"}}, "note": "Entries after “also recorded” stand apart in the source; their conditions may differ.", "data": [{"compound": "COc1cccc(N(CCNC(C)=O)c2ccccc2)c1", "note": "[5b, N-{2-[(3-Methoxyphenyl)-phenylamino]ethyl}acetamide]", "values": [{"measurement": "MT2 affinity compared with melatonin", "setting": "human MT2 receptor", "value": "better MT2 affinity than melatonin"}, {"measurement": "MT2-selectivity", "setting": "human MT2 receptor; MT2 versus MT1", "value": "good MT2-selectivity"}, {"measurement": "MT2 pKi", "setting": "human MT2 receptor; human MT2 stably expressed in CHO cells, calculated from IC50 by Cheng and Prusoff", "value": 10.18}, {"measurement": "activity for the MLT receptor subtype MT2 (in words)", "setting": "[1]", "value": "partial agonist activity"}, {"measurement": "reduction of the mechanical allodynia", "setting": "SNI rats; 20 mg/kg s.c.", "value": "significant reduction of the mechanical allodynia"}, {"measurement": "reduction of the mechanical allodynia", "setting": "SNI rats; 40 mg/kg s.c.", "value": "significant reduction of the mechanical allodynia"}, {"measurement": "mechanical withdrawal threshold compared to untreated rats", "setting": "SNI rats", "value": "significant decrease in mechanical withdrawal threshold"}, {"measurement": "licking time vs vehicle, first phase", "setting": "Wistar rats; 10 mg/kg", "value": "decrease in the licking time"}, {"measurement": "licking time vs vehicle, total time", "setting": "Wistar rats; 10 mg/kg", "value": "reduction of the licking time"}, {"measurement": "licking time vs vehicle, first phase", "setting": "Wistar rats; 20 mg/kg s.c.", "value": "decrease in the licking time; also recorded: decreased the licking time"}, {"measurement": "licking time vs vehicle, second phase", "setting": "Wistar rats; 20 mg/kg s.c.", "value": "decreased the licking time; also recorded: decrease of the licking time"}, {"measurement": "licking time vs vehicle, total time", "setting": "Wistar rats; 20 mg/kg s.c.", "value": "reduction of the licking time; also recorded: decrease in the licking time; also recorded: decreased the licking time"}, {"measurement": "licking time vs vehicle, first phase", "setting": "Wistar rats; 40 mg/kg", "value": "decrease in the licking time; also recorded: decreased the licking time"}, {"measurement": "licking time vs vehicle, second phase", "setting": "Wistar rats; 40 mg/kg", "value": "decreased the licking time"}, {"measurement": "licking time vs vehicle, total time", "setting": "Wistar rats; 40 mg/kg", "value": "reduction of the licking time; also recorded: decreased the licking time"}, {"measurement": "licking time compared to untreated rats", "setting": "Wistar rats", "value": "significantly decreased"}]}, {"compound": "CC(=O)NCCN(c1ccc(F)cc1)c1cccc(Br)c1", "note": "[5p, N-{2-[(3-Bromophenyl)-4-fluorophenylamino]ethyl}acetamide]", "values": [{"measurement": "Ki", "setting": "human MT2 receptor; human MT2 stably expressed in CHO cells, calculated from IC50 by Cheng and Prusoff, read-out: MT2 pKi (converted)", "value": 0.537, "unit": "nM"}, {"measurement": "activity for the MLT receptor subtype MT2 (in words)", "setting": "[1]", "value": "partial agonist activity"}, {"measurement": "effect on mechanical allodynia compared with GBP 100 mg/kg, MLT 150 mg/kg and VEH", "setting": "SNI rats; 20 mg/kg s.c.", "value": "greater than those produced by GBP"}, {"measurement": "reduction of the mechanical allodynia", "setting": "SNI rats; 20 mg/kg s.c.", "value": "significant reduction of the mechanical allodynia"}, {"measurement": "reduction of the mechanical allodynia", "setting": "SNI rats; 40 mg/kg s.c.", "value": "significant reduction of the mechanical allodynia"}, {"measurement": "extent of reversal of mechanical allodynia", "setting": "SNI rats; 20 and 40 mg/Kg s.c.", "value": "reversed almost completely mechanical allodynia"}, {"measurement": "mechanical withdrawal threshold compared to untreated rats", "setting": "SNI rats", "value": "significant decrease in mechanical withdrawal threshold"}, {"measurement": "licking time vs vehicle, first phase", "setting": "Wistar rats; 10 mg/kg", "value": "decrease in the licking time"}, {"measurement": "licking time vs vehicle, second phase", "setting": "Wistar rats; 10 mg/kg", "value": "decreased the licking time"}, {"measurement": "licking time vs vehicle, first phase", "setting": "Wistar rats; 20 mg/kg s.c.", "value": "decrease in the licking time; also recorded: decreased the licking time"}, {"measurement": "licking time vs vehicle, second phase", "setting": "Wistar rats; 20 mg/kg s.c.", "value": "decreased the licking time; also recorded: decrease of the licking time"}, {"measurement": "licking time vs vehicle, total time", "setting": "Wistar rats; 20 mg/kg s.c.", "value": "reduction of the licking time; also recorded: decrease in the licking time; also recorded: decreased the licking time"}, {"measurement": "licking time vs vehicle, first phase", "setting": "Wistar rats; 40 mg/kg", "value": "decrease in the licking time; also recorded: decreased the licking time"}, {"measurement": "licking time vs vehicle, second phase", "setting": "Wistar rats; 40 mg/kg", "value": "decreased the licking time"}, {"measurement": "licking time vs vehicle, total time", "setting": "Wistar rats; 40 mg/kg", "value": "reduction of the licking time; also recorded: decreased the licking time"}, {"measurement": "licking time compared to untreated rats", "setting": "Wistar rats", "value": "significantly decreased"}]}]}
